Structures can show the parent of a compound that is named as a salt.
Key:
[1] = tested on: P. aeruginosa [ATCC 27853]; assay: Mouse septicemia model of infection; format: in vivo, Swiss Webster female mice; settings: experiment #512, cefepime, 10 mg/ml b.i.d., 250 ul
Procedure: A general method for the in vivo assessment of bacterial EPIs is complicated by the fact that that both the antibiotic and the EPI need to be present for synergy to be achieved. A general method was discovered that has proven to be effective in establishing the relative efficacy of bacterial EPIs in a mouse septicemia model. The bacterial EPI is administered initially intravenously to mice with septicemia, followed 5 minutes later by the intravenous administration or oral administration of the antibiotic. A second administration of the EPI is then administered subcutaneously after an additional 5 minutes to act as a booster, followed by the final administration of the antibiotic either intravenously or orally after the second administration of the EPI. […] In a few instances, a second regiment of both EPI and antibiotic as administered on day 1 was required after 24 hours to affect cures.
Determination of the in vivo efficacy of bacterial efflux pump inhibitors (EPIs) can be efficiently determined using a mouse septicemia model of infection. The systemic infection is initiated by a 500 ul intraperitoneal injection of an inoculum containing bacteria (such as P. aeruginosa [ATCC 27853]) at a concentration of approximately 5×10^5 cells in 5% mucin in Swiss Webster female mice. […]

[2] = tested on: P. aeruginosa ATCC 27853; assay: Intrinsic MIC assay (CLSI broth microdilution); format: cell-based; settings: Pseudomonas aeruginosa, ATCC27853
Procedure: (§1) MIC assays were conducted in accordance with Clinical and Laboratory Standards Institute (CLSI) guidelines for broth microdilution.
The intrinsic MIC of the experimental EPIs was tested with the method described. The 2-fold serial dilution begins with 100 μg/mL of tested compound in the first column of the 96-well plates. The following Gram-negative bacterial strains were included in these assays: […]

[3] = tested on: Pseudomonas aeruginosa ATCC 27853; assay: Standard EPI assay (MIC of levofloxacin or cefepime in absence and presence of the EPI); format: cell-based; settings: P. aeruginosa ATCC 27853
Procedure: as §1
(§2) The EPI assay for the purposes of these studies represents a MIC assay in which the MIC of the antibiotic against the bacteria is tested in the presence of an experimental efflux pump inhibitor (EPI). […] Using serial dilutions of the EPI, its enhancement of antibiotic activity was then evaluated. […] For the evaluation of the efficacy of an EPI against bacteria that were pre-exposed to an antibiotic, the inoculum of bacteria that used was developed from a bacterial culture isolated as a single colony following exposure at ½ the MIIC of the antibiotic (so as to induce efflux pump expression), was to be used in combination with the EPI.
In our standard EPI assay, the MIC of the test antibiotic is determined in the absence and presence of sub-inhibitory concentrations of the EPI. Initially, the sub-inhibitory concentration used was ½×MIC of the EPI. […] Similar methodology was employed to examine the synergy with Escherichia coli ATCC 25922 in the presence of varied concentrations of these EPIs using clarithromycin as the antibiotic.

[4] = tested on: P. aeruginosa ATCC 27853 pre-exposed to cefepime; assay: Pre-exposure bacterial EPI assay; format: cell-based, Pseudomonas aeruginosa
Procedure: as §2
The principle underlying this pre-exposure is that exposure of the bacteria to sub-inhibitory concentrations of the test antibiotic will induce expression of efflux pumps, if any, and may represent the scenario in vivo more accurately.

Question: Which “% Survival (72 hr) Antibiotic + EPI” value ([1]; Example 6, 3.0 mg/ml b.i.d.) does the source give for `CC(C)C(N)CC[C@H](N)CNC(=O)c1cc2ccc(-c3ccc(F)cc3)cc2[nH]1` (stereo partly drawn) [Example 6, N-((2S)-2,5-diamino-6-methylheptyl)-6-(4-fluorophenyl)-1H-indole-2-carboxamide dihydrochloride] here?
Answer: 100%

Question: And the MIC [2]?
Answer: 25 µg/mL

Question: And the “MIC of levofloxacin in the presence of EPI” value ([3]; 6.25 μg/mL of the EPI)?
Answer: 0.063 µg/mL

Question: What about the “reduction of the MIC of levofloxacin relative to the absence of EPI” value ([3]; 6.25 μg/mL of the EPI) of the same compound?
Answer: 32 fold

Question: What about the “MIC of cefepime in the presence of EPI” value ([3]; 12.5 μg/mL of the EPI) of the same compound?
Answer: 1.0 µg/mL

Question: What about the “decrease of the MIC of cefepime” value ([3]; 12.5 μg/mL of the EPI) of the same compound?
Answer: 2 fold

Question: How did the MIC ([3]; Pseudomonas aeruginosa, ATCC27853) turn out when `C[C@H]1COc2c(N3CCN(C)CC3)c(F)cc3c(=O)c(C(=O)O)cn1c23` [levofloxacin, reference compound] was run?
Answer: 1 µg/mL

Question: `NCCC[C@@H](N)CNC(=O)c1cc2ccc(-c3ccc(F)cc3)cc2[nH]1` [Example 20, (R)-5-(6-(4-fluorophenyl)-1H-indole-2-carboxamido)pentane-1,4-diaminium chloride] was tested. Which “MIC of cefepime against cefepime-exposed P. aeruginosa in the presence of EPI” value ([4]; 6.25 μg/mL of the EPI) did it give?
Answer: 0.5 µg/mL

Question: What about the “reduction of the MIC of cefepime against cefepime-exposed P. aeruginosa” value ([4]; 6.25 μg/mL of the EPI) of the same compound?
Answer: 8 fold

Question: `CO/N=C(\C(=O)N[C@@H]1C(=O)N2C(C(=O)[O-])=C(C[N+]3(C)CCCC3)CS[C@H]12)c1csc(N)n1` [cefepime, reference compound] was tested. Which “% Survival (72 hr) Antibiotic Only” value ([1]; mice infected with P. aeruginosa) did it give?
Answer: 25%

Question: What about the MIC ([4]; Pseudomonas aeruginosa, ATCC27853, read-out: MIC of cefepime against P. aeruginosa pre-exposed to cefepime) of the same compound?
Answer: 16 µg/mL

Reference: patent publication US11993571B2, “Indole derivatives as efflux pump inhibitors” (RUTGERS, THE STATE UNIVERSITY OF NEW JERSEY, priority 2017, dated 2024)
